Patent US9457039B2, “2′-disubstituted nucleoside derivatives and methods of use thereof for the treatment of viral diseases” (Merck Sharp & Dohme Corp., priority 2012, dated 2016)

Tested on: HCV replicon (1b) cells
Experiment: Cell-based HCV replicon assay (replicon RNA level by real time PCR, Taqman)
Details: HCV replicon cells, harvested on day 3; EC50 = concentration giving ΔCT=1 over baseline; read-out: 1b EC50
Description: To measure cell-based anti-HCV activity of selected compounds of the present invention, replicon cells were seeded at 5000 cells/well in 96-well collagen I-coated Nunc plates in the presence of the test compound. Various concentrations of test compound, typically in 10 serial 2-fold dilutions, were added to the assay mixture, with the starting concentration ranging from 250 μM to 1 μM. The final concentration of dimethylsulfoxide was 0.5% fetal bovine serum was 5%, in the assay media. Cells were harvested on day 3 by the addition of 1× cell lysis buffer (Ambion cat #8721).
The replicon RNA level was measured using real time PCR (Taqman assay). The amplicon was located in 5B. The PCR primers were: 5B.2F, […] (SEQ ID. NO. 1); 5B.2R, […] (SEQ ID. NO. 2); the probe sequence was FAM-labeled […] (SEQ ID. NO. 3). GAPDH RNA was used as endogenous control and was amplified in the same reaction as NS5B (multiplex PCR) using primers and VIC-labeled probe recommended by the manufacturer (PE Applied Biosystem). The real-time RT-PCR reactions were run on ABI PRISM 7900HT Sequence Detection System using the following program: 48° C. for 30 minutes, 95° C. for 10 minutes, 40 cycles of 95° C. for 15 sec, 60° C. for 1 minute. The ΔCT values (CT5B-CTGAPDH) were plotted against the concentration of test compound and fitted to the sigmoid dose-response model using XLfit4 (MDL). […] Alternatively, to quantitate the absolute amount of replicon RNA, a standard curve was established by including serially diluted T7 transcripts of replicon RNA in the Taqman assay. All Taqman reagents were from […] Applied Biosystems. Such an assay procedure was described in detail in e.g. Malcolm et al., Antimicrobial Agents and Chemotherapy 50: 1013-1020 (2006).

Q: With `CC(C)OP1(=O)OC[C@H]2O[C@@H](c3cnn4c(N)ncnc34)[C@](C)(N)[C@@H]2O1` (stereo partly shown) [Compound 21] as the compound, how does the EC50 read?
A: Its EC50 is over 100 µM.

Q: How did the EC50 turn out when `CC(C)OP1(=O)OC[C@H]2O[C@@H](c3cnc4c(N)ncnn34)[C@](C)(N)[C@@H]2O1` (stereo partly shown) [Compound 19] was run?
A: Its EC50 is over 100 µM.

Same assay, conditions: Hepatitis C virus, 72 h; read-out: 1b EC50

Q: How did the EC50 turn out when `C[C@@]1(N)[C@H](O)[C@@H](CO)O[C@H]1c1cnc2c(N)ncnn12` [Compound 6] was run?
A: The EC50 was over 100 µM.

Q: Which EC50 does the source give for `CC(C)OP1(=O)OC[C@H]2O[C@@H](c3cnc4c(N)ncnn34)[C@](C)(N)[C@@H]2O1` (stereo partly shown) [Compound 18] here?
A: The EC50 was over 100 µM.

Q: For `C[C@@]1(N=[N+]=[N-])[C@H](O)[C@@H](CO)O[C@H]1c1cnn2c(N)ncnc12` [Compound 4], which EC50 is on record?
A: The EC50 was over 100 µM.

Q: Which EC50 does the source give for `C[C@@]1(N=[N+]=[N-])[C@H](O)[C@@H](CO)O[C@H]1c1cnc2c(N)ncnn12` [Compound 3] here?
A: The EC50 was over 100 µM.

Q: Which EC50 does the source give for `CC(C)OP1(=O)OC[C@H]2O[C@@H](c3cnn4c(N)ncnc34)[C@](C)(N)[C@@H]2O1` (stereo partly shown) [Compound 20] here?
A: The EC50 was over 100 µM.

Q: With `C[C@@]1(N)[C@H](O)[C@@H](CO)O[C@H]1c1cnn2c(N)ncnc12` [Compound 7] as the compound, how does the EC50 read?
A: The EC50 was over 100 µM.

Same assay, conditions: read-out: 1b EC50; HCV replicon cells, harvested on day 3; EC50 = concentration giving ΔCT=1 over baseline

Q: How did the EC50 turn out when `CC(C)OC(=O)[C@H](C)NP(=O)(OC[C@H]1O[C@@H](c2cnn3c(N)ncnc23)[C@](C)(N)[C@@H]1O)Oc1ccccc1` (stereo partly shown) [Compound 14] was run?
A: The EC50 was over 100 µM.

Q: With `CC(C)OC(=O)[C@H](C)NP(=O)(OC[C@H]1O[C@@H](c2cnn3c(N)ncnc23)[C@](C)(N)[C@@H]1O)Oc1ccccc1` (stereo partly shown) [Compound 15] as the compound, how does the EC50 read?
A: Its EC50 is 28 µM.
